Results on one molecule are retold here after ChEMBL document CHEMBL5550160, “Leveraging a rationally designed veliparib-based anilide eliciting anti-leukemic effects for the design of pH-responsive polymer nanoformulation” (Eur J Med Chem, 2024).

Assay [1] concerns HH. As to the kind of experiment: cells. Format: functional, cell-based. Particulars: Homo sapiens.
Description: Antiproliferative activity against human HH cells assessed as inhibition of cell growth by MTT assay
Assay [2] deals with FaDu. Description: cells. Format: functional, cell-based. Particulars: Homo sapiens.
Description: Antiproliferative activity against human FaDu cells assessed as inhibition of cell growth by MTT assay
Assay [3] deals with HL-60. As to the kind of experiment: Induction of apoptosis in human HL-60 cells assessed as chromatin condensation at 0.5 to 1 times IC50 by DAPI staining based microscopic analysis. Format: functional, cell-based.
Assay [4] has as its target T1, Histone deacetylase 7 (Homo sapiens) (UniProt Q8WUI4).
T1 sequence (whole entry): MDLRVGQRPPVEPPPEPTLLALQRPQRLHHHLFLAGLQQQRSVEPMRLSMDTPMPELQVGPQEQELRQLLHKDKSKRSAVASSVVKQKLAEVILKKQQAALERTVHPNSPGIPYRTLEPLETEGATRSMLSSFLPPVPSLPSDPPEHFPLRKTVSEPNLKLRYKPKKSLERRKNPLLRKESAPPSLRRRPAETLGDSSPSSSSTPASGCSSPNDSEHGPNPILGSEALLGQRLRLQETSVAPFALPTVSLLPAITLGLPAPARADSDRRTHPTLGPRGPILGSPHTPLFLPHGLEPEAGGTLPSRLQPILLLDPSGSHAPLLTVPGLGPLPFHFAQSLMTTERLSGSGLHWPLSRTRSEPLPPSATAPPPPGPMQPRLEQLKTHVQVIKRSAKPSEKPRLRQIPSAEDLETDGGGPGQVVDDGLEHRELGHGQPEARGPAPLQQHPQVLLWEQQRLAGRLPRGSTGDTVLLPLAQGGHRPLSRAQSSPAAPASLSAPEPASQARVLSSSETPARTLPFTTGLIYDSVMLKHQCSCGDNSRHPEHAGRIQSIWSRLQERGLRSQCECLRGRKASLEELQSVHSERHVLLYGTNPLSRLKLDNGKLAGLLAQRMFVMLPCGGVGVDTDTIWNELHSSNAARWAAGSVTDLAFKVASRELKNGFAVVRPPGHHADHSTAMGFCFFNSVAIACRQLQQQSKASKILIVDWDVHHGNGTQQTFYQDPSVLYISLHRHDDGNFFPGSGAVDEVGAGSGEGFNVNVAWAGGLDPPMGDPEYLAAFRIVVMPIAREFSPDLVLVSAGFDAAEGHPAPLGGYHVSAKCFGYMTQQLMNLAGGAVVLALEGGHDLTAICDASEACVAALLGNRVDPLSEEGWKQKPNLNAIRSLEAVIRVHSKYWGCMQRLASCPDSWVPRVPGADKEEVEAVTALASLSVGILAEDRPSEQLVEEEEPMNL
Description: Inhibition of HDAC7 (unknown origin) assessed as residual activity at 1.23 x 10^-7M (reference value: 102.66%). Particulars: dose 1.23 10^-7M.

Assay [5] addresses T2, Polyamine deacetylase HDAC10 (Homo sapiens) (UniProt Q969S8).
T2 sequence (whole entry): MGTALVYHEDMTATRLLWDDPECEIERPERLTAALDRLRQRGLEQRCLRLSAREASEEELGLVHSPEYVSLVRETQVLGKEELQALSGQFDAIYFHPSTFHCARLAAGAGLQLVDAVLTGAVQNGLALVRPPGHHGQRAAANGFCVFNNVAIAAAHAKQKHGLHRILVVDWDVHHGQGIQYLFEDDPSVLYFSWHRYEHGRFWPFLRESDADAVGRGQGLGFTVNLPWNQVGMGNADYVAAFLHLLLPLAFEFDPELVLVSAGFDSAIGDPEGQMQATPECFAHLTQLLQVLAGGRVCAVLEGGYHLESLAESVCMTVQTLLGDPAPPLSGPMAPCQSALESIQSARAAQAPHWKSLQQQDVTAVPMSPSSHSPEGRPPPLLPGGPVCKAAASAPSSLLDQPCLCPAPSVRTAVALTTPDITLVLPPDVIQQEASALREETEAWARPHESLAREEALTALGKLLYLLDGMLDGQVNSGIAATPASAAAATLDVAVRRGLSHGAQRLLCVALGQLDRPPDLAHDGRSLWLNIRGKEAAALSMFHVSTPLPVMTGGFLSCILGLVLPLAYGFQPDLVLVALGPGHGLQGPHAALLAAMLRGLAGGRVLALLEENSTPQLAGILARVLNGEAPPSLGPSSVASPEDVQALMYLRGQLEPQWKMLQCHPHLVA
Description: Inhibition of HDAC10 (unknown origin) assessed as residual activity at 1.23 x 10^-7M (reference value: 101.54%). Particulars: dose 1.23 10^-7M.

Calls of active or inactive are those of the source. The rule behind the calls is not given here. A value given as a limit tells only on which side of the number the result lay.

Turning to `NC(=O)c1cccc2[nH]c(-c3ccc(NCc4ccc(C(=O)Nc5ccccc5N)cc4)cc3)nc12`, the IC50 was 1.01 µM in assay [1] and over 10 µM in assay [2]. Further, in assay [3], the outcome was inactive. Also, the Activity is 89.1% in assay [4] and 101% in assay [5].
